Experimental data as given in ChEMBL document CHEMBL2434907, “Synthesis and SAR studies of benzimidazolone derivatives as histamine H3-receptor antagonists” (Bioorg Med Chem Lett, 2013).

Legend:
Histamine H3 receptor = Histamine H3 receptor (Cavia porcellus, UniProt Q9JI35); assay: Displacement of [3H]-N-alpha-methyl histamine from histamine H3 receptor in guinea pig brain homogenates; assay type: tissue-based
Cytochrome P450 2D6 = Cytochrome P450 2D6 (Homo sapiens, UniProt P10635); assay: Inhibition of CYP2D6 in human liver microsomes; assay type: ADME, Microsome
Cytochrome P450 3A4 = Cytochrome P450 3A4 (Homo sapiens, UniProt P08684); assay: Inhibition of CYP3A4 in human liver microsomes; assay type: ADME, Microsome
[1] = AUC in Sprague-Dawley rat at 10 mg/kg, po; assay type: ADME, organism-based; parameters: dose 10 mg/kg, route oral; details: plasma
[2] = Plasma concentration in Sprague-Dawley rat at 10 mg/kg, po after 6 hrs; assay type: ADME, organism-based; parameters: dose 10 mg/kg, route oral

Histamine H3 receptor, sequence (Q9JI35 whole entry): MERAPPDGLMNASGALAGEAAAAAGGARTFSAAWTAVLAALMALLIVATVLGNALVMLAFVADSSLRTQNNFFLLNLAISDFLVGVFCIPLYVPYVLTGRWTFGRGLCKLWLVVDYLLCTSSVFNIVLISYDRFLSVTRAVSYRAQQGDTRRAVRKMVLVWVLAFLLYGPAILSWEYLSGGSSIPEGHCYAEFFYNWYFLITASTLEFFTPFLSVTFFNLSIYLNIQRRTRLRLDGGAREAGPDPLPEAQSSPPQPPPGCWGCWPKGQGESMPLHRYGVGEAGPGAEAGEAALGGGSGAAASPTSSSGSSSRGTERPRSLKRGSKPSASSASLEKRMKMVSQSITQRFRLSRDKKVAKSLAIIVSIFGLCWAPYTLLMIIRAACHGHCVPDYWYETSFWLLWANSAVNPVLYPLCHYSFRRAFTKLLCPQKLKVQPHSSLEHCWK
Cytochrome P450 3A4, sequence (P08684 whole entry): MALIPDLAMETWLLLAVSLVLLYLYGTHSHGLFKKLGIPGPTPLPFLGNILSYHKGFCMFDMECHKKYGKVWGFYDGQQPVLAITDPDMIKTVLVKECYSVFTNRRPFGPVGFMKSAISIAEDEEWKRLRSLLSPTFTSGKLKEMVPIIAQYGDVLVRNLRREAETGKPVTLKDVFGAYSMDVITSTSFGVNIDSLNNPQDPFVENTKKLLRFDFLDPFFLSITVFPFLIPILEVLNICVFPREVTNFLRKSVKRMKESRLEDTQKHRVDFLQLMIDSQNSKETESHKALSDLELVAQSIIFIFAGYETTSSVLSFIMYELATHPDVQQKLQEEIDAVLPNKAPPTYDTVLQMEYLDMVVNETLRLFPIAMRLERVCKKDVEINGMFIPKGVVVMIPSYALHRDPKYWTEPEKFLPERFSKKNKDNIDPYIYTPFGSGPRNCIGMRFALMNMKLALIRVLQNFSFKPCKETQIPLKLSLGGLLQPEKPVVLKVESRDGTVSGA
Cytochrome P450 2D6, sequence (P10635 whole entry): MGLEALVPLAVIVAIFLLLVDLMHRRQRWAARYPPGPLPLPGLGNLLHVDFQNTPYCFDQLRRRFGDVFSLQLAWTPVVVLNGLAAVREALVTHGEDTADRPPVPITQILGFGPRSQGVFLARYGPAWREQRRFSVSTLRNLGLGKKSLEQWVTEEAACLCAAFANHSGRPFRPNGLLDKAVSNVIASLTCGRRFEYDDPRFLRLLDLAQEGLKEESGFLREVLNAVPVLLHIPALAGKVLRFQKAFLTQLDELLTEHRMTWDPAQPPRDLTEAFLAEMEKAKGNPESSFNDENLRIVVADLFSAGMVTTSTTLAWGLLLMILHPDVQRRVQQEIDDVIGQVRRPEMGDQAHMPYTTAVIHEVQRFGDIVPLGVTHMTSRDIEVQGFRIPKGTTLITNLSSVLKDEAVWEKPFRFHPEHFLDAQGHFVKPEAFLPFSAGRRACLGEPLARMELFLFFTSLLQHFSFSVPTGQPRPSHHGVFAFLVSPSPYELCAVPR

| Ki (Histamine H3 receptor) | IC50 (Cytochrome P450 2D6) | IC50 (Cytochrome P450 3A4) | AUC [1] | concentration at 6 h [2] | SMILES |
| --- | --- | --- | --- | --- | --- |
| 0.012 µM | – | – | – | – | Nc1cc(CN2CCC(C(=O)N3CCC(n4c(=O)n(Cc5ccc(Cl)cc5)c5ccccc54)CC3)CC2)ccn1 |
| 0.006 µM | – | – | – | – | Nc1cc(CN2CCC(C(=O)N3CCC(n4c(=O)n(Cc5ccccc5)c5cc(F)ccc54)CC3)CC2)ccn1 |
| 0.0006 µM | > 30 µM | > 30 µM | – | – | Nc1cc(CN2CCC(C(=O)N3CCC(n4c(=O)[nH]c5ccccc54)CC3)CC2)ccn1 |
| – | > 30 µM | > 30 µM | – | – | Nc1cc(CN2CCC(C(=O)N3CCC(n4c(=O)n(CCCC(F)(F)F)c5ccccc54)CC3)CC2)ccn1 |
| 0.077 µM | – | – | – | – | CC(c1ccc(Cl)c(Cl)c1)n1c(=O)n(C2CCN(C(=O)C3CCN(Cc4ccnc(N)c4)CC3)CC2)c2ccccc21 (stereo unspecified) |
| 0.42 µM | – | – | – | – | CC(c1ccc(-c2ccc(F)cc2)cc1)n1c(=O)n(C2CCN(C(=O)C3CCN(Cc4ccnc(N)c4)CC3)CC2)c2ccccc21 (stereo unspecified) |
| – | > 30 µM | > 30 µM | 0.1 µM·h | – | COCCn1c(=O)n(C2CCN(C(=O)C3CCN(Cc4ccnc(N)c4)CC3)CC2)c2ccccc21 |
| – | > 30 µM | 30 µM | – | – | Nc1cc(CN2CCC(C(=O)N3CCC(n4c(=O)n(CCN5CCOCC5)c5ccccc54)CC3)CC2)ccn1 |
| 0.0023 µM | > 30 µM | > 30 µM | – | – | Nc1cc(CN2CCC(C(=O)N3CCC(n4c(=O)n(CCN5CCOCC5)c5cc(F)ccc54)CC3)CC2)ccn1 |
| – | > 30 µM | 30 µM | 4.1 µM·h | 510 nM | Nc1cc(CN2CCC(C(=O)N3CCC(n4c(=O)n(CCCC(F)(F)F)c5cc(F)ccc54)CC3)CC2)ccn1 |
| – | > 30 µM | > 30 µM | – | – | CC(C)Cn1c(=O)n(C2CCN(C(=O)C3CCN(Cc4ccnc(N)c4)CC3)CC2)c2ccc(F)cc21 |
| – | > 30 µM | > 30 µM | 1.2 µM·h | 130 nM | Nc1cc(CN2CCC(C(=O)N3CCC(n4c(=O)n(CC(F)(F)F)c5cc(F)ccc54)CC3)CC2)ccn1 |
| – | > 30 µM | 30 µM | 3.5 µM·h | 260 nM | Nc1cc(CN2CCC(C(=O)N3CCC(n4c(=O)n(CC5CC5)c5cc(F)ccc54)CC3)CC2)ccn1 |
| – | > 30 µM | 22 µM | 1.8 µM·h | 200 nM | Nc1cc(CN2CCC(C(=O)N3CCC(n4c(=O)n(C5CCCC5)c5cc(F)ccc54)CC3)CC2)ccn1 |
| – | > 30 µM | > 30 µM | – | – | Nc1cc(CN2CCC(C(=O)N3CCC(n4c(=O)n(CC5CCCCC5)c5cc(F)ccc54)CC3)CC2)ccn1 |
| – | > 30 µM | > 30 µM | 5.1 µM·h | 680 nM | Nc1cc(CN2CCC(C(=O)N3CCC(n4c(=O)n(-c5ccc(F)c(F)c5)c5cc(F)ccc54)CC3)CC2)ccn1 |
| – | > 30 µM | > 30 µM | 12.9 µM·h | 1850 nM | Nc1cc(CN2CCC(C(=O)N3CCC(n4c(=O)n(-c5cc(F)cc(F)c5)c5cc(F)ccc54)CC3)CC2)ccn1 |
| – | > 30 µM | > 30 µM | 10.9 µM·h | 1200 nM | Nc1cc(CN2CCC(C(=O)N3CCC(n4c(=O)n(-c5ccccn5)c5cc(F)ccc54)CC3)CC2)ccn1 |
| – | > 30 µM | > 30 µM | – | – | Nc1cc(CN2CCC(C(=O)N3CCC(n4c(=O)n(-c5ncccn5)c5cc(F)ccc54)CC3)CC2)ccn1 |
| 0.0005 µM | > 30 µM | > 30 µM | 3.7 µM·h | 500 nM | Nc1cc(CN2CCC(C(=O)N3CCC(n4c(=O)n(-c5cnccn5)c5cc(F)ccc54)CC3)CC2)ccn1 |
